Data: US10316017B2, “COT modulators and methods of use thereof” (Gilead Sciences, Inc., priority 2015, dated 2019)
Read-outs that look alike come from different tables or passages of the source.

Columns and labels:
[1] = test system: TNFα production in LPS-stimulated human monocytes; test: Cot Monocyte TNFα Cell Based Assay; conditions: for IC50/EC50 [nM]: EC50 (TNFα, monocytes): second value of the cell IC50/EC50, human monocytes, 50 pg/ml LPS, 4 hours; for EC50: Homo sapiens, Monocyte, LPS-stimulated human monocytes, TNFα TR-FRET, read-out: EC50 TNF
How it was run: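 Cells at 5,000/well were pretreated with compound for 1 h at 37 °C (0.5% DMSO final), then stimulated with 50 pg/ml LPS for 4 h at 37 °C. Supernatant TNFα was measured by two-antibody TR-FRET after overnight room-temperature incubation; values are percent of control between unstimulated and stimulated wells.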

[2] = molecular target: T1, human Cot catalytic domain (30-397 amino acids) (Homo sapiens, UniProt P41279); test: High Throughput Cot Biochemical Assay (KinEASE TR-FRET); conditions: 400 μM ATP
T1 construct: Purified recombinant human Cot catalytic domain (30-397 amino acids) was purchased from Cama Biosciences; purchased Cama Biosciences (so in the source)
T1 sequence (P41279 30-397): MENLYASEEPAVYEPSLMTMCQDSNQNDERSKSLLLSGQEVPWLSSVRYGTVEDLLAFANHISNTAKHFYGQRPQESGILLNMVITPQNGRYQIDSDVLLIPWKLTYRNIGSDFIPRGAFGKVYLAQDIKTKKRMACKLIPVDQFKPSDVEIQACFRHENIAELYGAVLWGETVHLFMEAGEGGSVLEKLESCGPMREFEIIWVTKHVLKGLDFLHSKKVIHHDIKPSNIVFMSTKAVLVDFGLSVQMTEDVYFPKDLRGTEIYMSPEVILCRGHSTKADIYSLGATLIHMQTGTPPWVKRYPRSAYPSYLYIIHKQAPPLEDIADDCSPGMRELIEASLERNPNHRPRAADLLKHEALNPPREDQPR
How it was run: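 Reaction of 5 nM recombinant human Cot catalytic domain (aa 30-397) with 1 μM STK3 peptide (XL665-labeled) and 400 μM ATP in 10 mM MOPS pH 7.0, 10 mM MgOAc, 1 mM DTT, 0.5 mg/mL BSA, 0.1% DMSO. Phosphopeptide detected by TR-FRET with europium anti-phospho antibody.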

[3] = molecular target: T2, Human EGFR, cytoplasmic domain [669-1210] (Homo sapiens, UniProt P00533); test: High Throughput EGFR Biochemical Assay (KinEASE TR-FRET)
T2 construct: purchased Cama Biosciences (so in the source)
T2 sequence (P00533 669-1210): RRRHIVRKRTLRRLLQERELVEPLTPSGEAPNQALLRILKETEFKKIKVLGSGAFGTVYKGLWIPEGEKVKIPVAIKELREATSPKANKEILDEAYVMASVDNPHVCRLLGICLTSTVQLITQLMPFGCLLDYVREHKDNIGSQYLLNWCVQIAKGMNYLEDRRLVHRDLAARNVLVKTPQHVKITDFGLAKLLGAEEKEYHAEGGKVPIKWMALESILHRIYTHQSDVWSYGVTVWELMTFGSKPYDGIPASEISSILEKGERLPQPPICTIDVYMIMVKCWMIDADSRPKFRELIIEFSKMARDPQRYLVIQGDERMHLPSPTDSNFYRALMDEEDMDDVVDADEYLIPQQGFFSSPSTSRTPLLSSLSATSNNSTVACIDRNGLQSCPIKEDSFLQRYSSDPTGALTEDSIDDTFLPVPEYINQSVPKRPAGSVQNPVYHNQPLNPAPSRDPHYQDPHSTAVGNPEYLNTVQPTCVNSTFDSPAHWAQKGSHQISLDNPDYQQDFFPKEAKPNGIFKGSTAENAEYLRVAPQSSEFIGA
Procedure: Example 62: High Throughput EGFR Biochemical Assay
EGFR activity was measured using KinEASE (Cisbio), a time-resolved fluorescence resonance energy transfer (TR-FRET) immunoassay. In this assay, EGFR-catalyzes the phosphorylation of a universal Tyrosine kinase peptide substrate labeled with XL665. Europium conjugated phosphor-tyrosine specific antibody binds the resulting phosphorylated peptide. Formation of phosphorylated peptide is quantified by TR-FRET with Europium as the donor and XL665 the acceptor. The assay was performed in two main steps. The first step is the kinase reaction step and the second step is the detection step with TR-FRET reagents. In brief, test compounds 1:3 serially diluted in DMSO were delivered into Corning white, low volume, non-binding 384 well plates using the Echo 550 acoustic liquid dispenser (Labcyte®). […] After 60 min of incubation at room temperature, 10 μL of Stop and Detect Solution (1:400 Europium Cryptate labeled anti-phosphorylated peptide antibody solution and 125 nM strepavidin-XL665 Tracer in a 50 mM Hepes pH 7.0 detection buffer containing sufficient EDTA) was added.

[4] = Cot KinEASE TR-FRET, read-out: IC50 HTRF

Compound | IC50/EC50 [nM]: EC50 (TNFα, monocytes) [1] | IC50 ([2]; IC50/EC50 [nM]: IC50 (Cot), first value of the cell IC50/EC50, 5 nM Cot) | IC50 [3] | IC50 ([2]; first value of the cell IC50/EC50, 5 nM Cot, read-out: IC50/EC50 [nM]: IC50 (Cot)) | EC50 [1] | IC50 [2, 4]
Cn1cc(CNc2cc(Cl)c3ncc(C#N)c(Nc4ccc(F)c(Cl)c4)c3c2)nn1 [Comparative Example 3, reference compound] | > 10000 nM | 67 nM | > 10000 nM | – | – | –
CC(Nc1cc(Cl)c2ncc(C#N)c(Nc3ccc(F)c(Cl)c3)c2c1)c1cn(C)nn1 (centres unmarked) [Comparative Example 4, reference compound] | – | – | > 10000 nM | > 10000 nM | – | –
CCN1CCC(n2cc([C@@H](Nc3cc(Cl)c4ncc(C#N)c(Nc5ccc(F)c(Cl)c5)c4c3)c3ccccc3)nn2)CC1 [Example 919, (S)-8-chloro-4-((3-chloro-4-fluorophenyl)amino)-6-(((1-(1-ethylpiperidin-4-yl)-1H-1,2,3-triazol-4-yl)(phenyl)methyl)amino) quinoline-3-carbonitrile] | 62 nM | – | 2290 nM | – | 62 nM | 2 nM
Cn1cc(C(Nc2cc(Cl)c3ncc(C#N)c(Nc4ccc(F)c(Cl)c4)c3c2)c2ccccc2)nn1 (centres unmarked) [Example 920, 8-chloro-4-((3-chloro-4-fluorophenyl)amino)-6-(((1-methyl-1H-1,2,3-triazol-4-yl)(phenyl)methyl)amino) quinoline-3-carbonitrile] | 215 nM | – | > 10000 nM | – | 215 nM | 10 nM
CC(C)(C)CNc1c(C#N)cnc2c(Cl)cc(N[C@@H](c3ccccc3Cl)c3nnn(C4(C)CC4)c3F)cc12 [Example 1169, (S)-8-chloro-6-(((2-chlorophenyl)(5-fluoro-1-(1-methylcyclopropyl)-1H-1,2,3-triazol-4-yl)methyl)amino)-4-(neopentylamino)quinoline-3-carbonitrile] | – | – | – | – | ≥ 1000 nM | 234 nM
COc1c([C@@H](Nc2cc(Cl)c3ncc(C#N)c(NCC(C)(C)C)c3c2)c2ccccc2Cl)nnn1C1(C)CC1 [Example 1170, (S)-8-chloro-6-(((2-chlorophenyl)(5-methoxy-1-(1-methylcyclopropyl)-1H-1,2,3-triazol-4-yl)methyl)amino)-4-(neopentylamino)quinoline-3-carbonitrile] | – | – | – | – | ≥ 1000 nM | 217 nM
